Data published in article PMC3440242 (Peptides, 2012).
Read-outs that look alike come from different tables or passages of the source. Each block holds one molecule with its values, some of them ahead of it.

Key:
CHO cells [1] = assay: Cell detachment, protein loss and lysis of CHO cells
Y2 receptor [2] = molecular target: T1, Y2 receptor (Homo sapiens, UniProt P49146); conditions: read-out: ic50, [^125I] hPYY(3-36) binding to particulate Y2 receptor; cited from earlier work
T1 sequence (P49146 1-381): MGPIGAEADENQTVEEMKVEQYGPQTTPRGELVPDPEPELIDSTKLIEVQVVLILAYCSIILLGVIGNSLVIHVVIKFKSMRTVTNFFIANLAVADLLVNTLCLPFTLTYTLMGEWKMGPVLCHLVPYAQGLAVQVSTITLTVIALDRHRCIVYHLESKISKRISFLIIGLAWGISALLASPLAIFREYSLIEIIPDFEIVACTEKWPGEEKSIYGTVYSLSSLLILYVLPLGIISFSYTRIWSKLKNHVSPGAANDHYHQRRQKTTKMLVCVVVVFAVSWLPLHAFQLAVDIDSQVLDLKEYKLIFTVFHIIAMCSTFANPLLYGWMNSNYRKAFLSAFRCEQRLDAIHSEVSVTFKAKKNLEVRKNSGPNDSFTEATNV

[3] = molecular target: G-protein nucleotide sites (Gi α subunits) (Cricetulus griseus, UniProt Q60397); assay: ^35S-GTPγS binding to Y2-CHO particulates; conditions: Y2-CHO cells
Chain of G-protein nucleotide sites (Gi α subunits) (Q60397 2-354): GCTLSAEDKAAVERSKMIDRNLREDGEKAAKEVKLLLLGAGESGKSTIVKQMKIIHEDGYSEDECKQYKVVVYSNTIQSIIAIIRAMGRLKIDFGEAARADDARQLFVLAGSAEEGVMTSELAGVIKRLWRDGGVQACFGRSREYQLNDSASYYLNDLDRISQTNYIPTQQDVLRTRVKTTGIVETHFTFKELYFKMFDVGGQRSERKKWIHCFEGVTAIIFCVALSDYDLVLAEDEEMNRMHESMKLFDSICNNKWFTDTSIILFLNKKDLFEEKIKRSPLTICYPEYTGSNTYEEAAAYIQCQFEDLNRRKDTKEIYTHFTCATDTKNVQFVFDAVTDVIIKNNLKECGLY

CHO cells [4] = test system: CHO cells
CHO cells [5] = test system: CHO cells; remark: listed apart in the source
Y4 receptor = assay: Agonist binding to surface Y4 receptor in CHO monolayers after unmasking agent; assay type: cell-based; conditions: 30 μM digitonin pretreatment, 20 min at 37 °C; 50 pM [^125I] hPP
CHO cells [6] = assay: Permeabilization of CHO cells; conditions: 20 min at 37 °C
[7] = stated without reference; cited from earlier work
Y1 receptor = assay: Agonist binding to surface Y1 receptor in CHO monolayers after unmasking agent; assay type: cell-based; conditions: 30 μM digitonin pretreatment, 20 min at 37 °C; 50 pM [^125I] hNPY
guinea pig Y2 receptor = assay: Unmasking of surface guinea pig Y2 receptor in adherent CHO cells; assay type: cell-based; conditions: 30 μM agent, 20 min at 37 °C, 50 pM [^125I] hPYY(3-36), at least three experiments
[8] = test system: G-protein nucleotide sites (Gi3 α subunit); assay type: cell-based
Y2 receptor [9] = molecular target: T1, Y2 receptor; assay: Particulate Y2 agonist binding
hY2-CHO receptor [10] = conditions: read-out: Scatchard affinity / Kdiss, ref [37]; cited from earlier work
hY2-CHO receptor [11] = assay: Depletion of hY2-CHO surface receptors by agonists; assay type: cell-based, human; conditions: exponential + linear model, four experiments

Molecule: C[C@H](CCC(=O)NCCC[N+](C)(C)CCCS(=O)(=O)[O-])[C@H]1CC[C@H]2[C@@H]3[C@H](O)C[C@@H]4C[C@H](O)CC[C@]4(C)[C@H]3C[C@H](O)[C@]12C [CHAPS, 3-[(3-Cholamidopropyl)dimethylammonio]-1-propanesulfonate]
concentration above which CHO cells and particulates are lysed (CHO cells [1]): above 1 mM

Molecule: C[N+](C)(C)CCSS(C)(=O)=O [MTSET, 2-[trimethylammonium)ethyl] methanethiosulfonate]
IC50 (Y2 receptor [2]): 264 ± 27 µM

Molecule: CCN1C(=O)C=CC1=O [NEM, N-Ethylmaleimide]
IC50 (Y2 receptor [2]): 146 ± 14 µM

Molecule: Nc1nc2c(ncn2[C@@H]2O[C@H](COP(=O)(O)OP(=O)(O)OP(O)(O)=S)[C@@H](O)[C@H]2O)c(=O)[nH]1 [^35S-GTPγS, guanosine 5′-O-(3-thiotriphosphate]
total particulate nucleotide sites [3]: 32 ± 0.7 fmol/100,000 cells

Molecule: C[C@H](CCC(=O)O)[C@H]1CC[C@H]2[C@@H]3[C@H](O)C[C@@H]4C[C@H](O)CC[C@]4(C)[C@H]3C[C@H](O)[C@]12C [cholate]
permeabilization of CHO cells (in words) (CHO cells [4]): did not permeabilize CHO cells at 100 μM
concentration above which CHO cells and particulates are lysed (CHO cells [5]): above 1 mM

Molecule: C[C@@H]1CC[C@@]2(OC1)O[C@H]1[C@@H](O)[C@H]3[C@@H]4CC[C@H]5C[C@@H](O[C@@H]6O[C@H](CO)[C@H](O[C@@H]7O[C@H](CO)[C@@H](O)[C@H](O[C@@H]8OC[C@@H](O)[C@H](O)[C@H]8O)[C@H]7O[C@@H]7O[C@H](CO)[C@H](O)[C@H](O[C@@H]8O[C@H](CO)[C@@H](O)[C@H](O)[C@H]8O)[C@H]7O)[C@H](O)[C@H]6O)[C@H](O)C[C@]5(C)[C@H]4CC[C@]3(C)[C@H]1[C@@H]2C [digitonin]
effect on Y4-CHO surface sites (Y4 receptor): did not increase the Y1-CHO or Y4-CHO surface sites
concentration at which permeabilization reached a plateau (CHO cells [6]; judged by labeling by ^35S-GTPγS): 20 µM
critical micellar concentration [7]: ≥ 100 µM
effect on Y1-CHO surface sites (Y1 receptor): did not increase the Y1-CHO or Y4-CHO surface sites
concentration above which CHO cells and particulates are lysed (CHO cells [5]): above 1 mM
concentration above which protein leakage is observed (CHO cells [5]): above 30 μM
concentration at/above which cell detachment is found (CHO cells [5]): about 50 μM
increase of labeling of adherent confluent Y2-CHO cells (guinea pig Y2 receptor): about 4 fold
digitonin range in which ^35S-GTPγS binding saturates [8]: 3 to 30 µM
increase of ^35S-GTPγS binding to intact CHO cells [8]: 10-15 fold

Molecule: CCCCC[C@@H](O)[C@H]1C(=O)O[C@H](C)[C@@H](O)/C=C/C=C/C=C/C=C/C=C(\C)[C@@H](O)C[C@H](O)C[C@H](O)C[C@H](O)C[C@H](O)C[C@H](O)C[C@@H]1O [filipin III]
concentration range inducing permeabilization (CHO cells [6]; filipin III): 0.6 to 3 µM
concentration at which cell lysis starts (CHO cells [5]): about 10 μM
concentration at/above which cell detachment is found (CHO cells [5]): above 15 μM
loss of mainly cytosolic protein (CHO cells [5]): about 40%
effect on particulate Y2 agonist binding (in words) (Y2 receptor [9]): no loss of either particulate or surface Y2 sites
IC50 (Y2 receptor [9]; read-out: ic50, agonist binding to Y2-CHO particulates): ~100 µM
^35S-GTPγS binding to Y2-CHO cells (in words) [8]: highly variable

% total depletion in component 1 (hY2-CHO receptor [11]; + 30 μM PAO): 15.6 ± 3.9%
K1 (exponential component) (hY2-CHO receptor [11]; + 30 μM PAO): 3.0 ± 0.75 nM
K2 (linear component) (hY2-CHO receptor [11]; + 30 μM PAO): 243 ± 15 nM
% total depletion in component 1 (hY2-CHO receptor [11]; without PAO): 32.8 ± 8.5 %
K1 (exponential component) (hY2-CHO receptor [11]; without PAO): 6.2 ± 1.6 nM
K2 (linear component) (hY2-CHO receptor [11]; without PAO): 153 ± 17 nM
Molecule: LRHYLNLLTRORY [AcLeu, human neuropeptide Y(24-36), acetyl-Leu(28, 31)]
Kd (hY2-CHO receptor [10]): 0.0005 µM

Molecule: pertussis toxin: toxin used at 1 ng/ml for 21 h
^35S-GTPγS binding to Y2-CHO cells (in words) [8]: highly sensitive to cell pretreatment with pertussis toxin

permeabilization of CHO cells (in words) (CHO cells [4]): did not permeabilize CHO cells at 100 μM
Molecule: polyoxyethylene(20)sorbitan monooleate [Tween 80]
